Measurements taken from PubChem BioAssay (NCI).
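Values below derive from 48-hour exposures of cells grown in 96-well plates, with endpoints linearly interpolated between the two concentrations bracketing the appropriate inhibition level. At the GI50, growth is halved. Definition used: TGI = concentration required for complete inhibition of growth.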

Assays:
Test in all cases: NCI anticancer screen, dose series, 48 h; in the data active = GI50 below about 0.43 µM; inactive = the rest
[1] = system: SR leukemia
[2] = system: MDA-MB-231 breast
[3] = system: SNB-19 CNS
[4] = system: OVCAR-5 ovarian
[5] = system: A549 NSCLC
[6] = system: TK-10 renal
[7] = system: CAKI-1 renal
[8] = system: OVCAR-8 ovarian
[9] = system: ACHN renal
[10] = system: HOP-62 NSCLC
[11] = system: CCRF-CEM leukemia
[12] = system: HL-60(TB) leukemia
[13] = system: MALME-3M melanoma
[14] = system: K-562 leukemia
[15] = system: HT29 colon
[16] = system: SNB-75 CNS
[17] = system: U251 CNS
[18] = system: NCI-H226 lung
[19] = system: UACC-62 melanoma
[20] = system: NCI-H460 lung
[21] = system: OVCAR-3 ovarian
[22] = system: MCF7 breast
[23] = system: MOLT-4 leukemia
[24] = system: A498 renal
[25] = system: BT-549 breast
[26] = system: SK-MEL-2 melanoma
[27] = system: SF-268 CNS
[28] = system: HS 578T breast
[29] = system: DU-145 prostate
[30] = system: EKVX NSCLC
[31] = system: 786-0 renal
[32] = system: SN12C renal
[33] = system: SW-620 colon
[34] = system: COLO 205 colon
[35] = system: M14 melanoma
[36] = system: OVCAR-4 ovarian
[37] = system: SK-OV-3 ovarian
[38] = system: LOX IMVI melanoma
[39] = system: UACC-257 melanoma
[40] = system: NCI-H522 lung
[41] = system: SK-MEL-5 melanoma
[42] = system: HCC-2998 colon
[43] = system: KM12 colon
[44] = system: RPMI-8226 leukemia
[45] = system: RXF 393 renal
[46] = system: PC-3 prostate
[47] = system: NCI/ADR-RES ovarian
[48] = system: HOP-92 NSCLC
[49] = system: SF-539 CNS
[50] = system: NCI-H23 lung
[51] = system: T-47D breast
[52] = system: MDA-MB-435
[53] = system: SF-295 CNS
[54] = system: SK-MEL-28 melanoma
[55] = system: HCT-116 colon
[56] = system: UO-31 renal
[57] = system: HCT-15 colon
[58] = system: IGROV1 ovarian

CC(=O)O[C@H]([C@H](OC(C)=O)[C@H](C)OC(C)=O)[C@@H](/C=C/[C@@H]1CC=CC(=O)O1)OC(C)=O
99.5 µM: TGI [44]
4.73 µM: TGI [40]
92.7 µM: TGI [49]
51.3 µM: TGI [25]
69.6 µM: TGI [16]
inactive: GI50 [1] 77.5 µM | GI50 [2] > 100 µM | GI50 [3] 59.5 µM | GI50 [4] > 100 µM | GI50 [5] > 100 µM | GI50 [6] > 100 µM | GI50 [7] 29.8 µM | GI50 [8] 40.6 µM | GI50 [9] > 100 µM | GI50 [10] 57.6 µM | GI50 [11] 41.5 µM | GI50 [12] > 100 µM | GI50 [13] > 100 µM | GI50 [14] > 100 µM | GI50 [15] 72.1 µM | GI50 [16] 30.2 µM | GI50 [17] > 100 µM | GI50 [18] > 100 µM | GI50 [19] > 100 µM | GI50 [20] 42 µM | GI50 [21] 17.1 µM | GI50 [22] 33.5 µM | GI50 [23] > 100 µM | GI50 [24] 50.2 µM | GI50 [25] 22.3 µM | GI50 [26] 24 µM | GI50 [27] 28.9 µM | GI50 [28] 54.7 µM | GI50 [29] 37.9 µM | GI50 [30] > 100 µM | GI50 [31] 90.1 µM | GI50 [32] 84.1 µM | GI50 [33] 40 µM | GI50 [34] 33.5 µM | GI50 [35] 42.6 µM | GI50 [36] 45.3 µM | GI50 [37] > 100 µM | GI50 [38] 57.1 µM | GI50 [39] > 100 µM | GI50 [40] 2.05 µM | GI50 [41] 44.5 µM | GI50 [42] 29 µM | GI50 [43] > 100 µM | GI50 [44] 29.7 µM | GI50 [45] > 100 µM | GI50 [46] 13.9 µM | GI50 [47] > 100 µM | GI50 [48] 17.3 µM | GI50 [49] 34.5 µM | GI50 [50] 35.6 µM | GI50 [51] 27.4 µM | GI50 [52] 19.8 µM | GI50 [53] 15.8 µM | GI50 [54] 40.4 µM | GI50 [55] 33.4 µM | GI50 [56] 20.1 µM | GI50 [57] 44.2 µM
45.9 µM: TGI [53]
61.7 µM: TGI [48]
83.6 µM: TGI [7]
39.9 µM: TGI [56]
77.2 µM: TGI [42]
> 100 µM: TGI [1] | TGI [2] | TGI [3] | TGI [4] | TGI [5] | TGI [6] | TGI [8] | TGI [9] | TGI [10] | TGI [11] | TGI [12] | TGI [13] | TGI [14] | TGI [15] | TGI [17] | TGI [18] | TGI [19] | TGI [20] | TGI [22] | TGI [23] | TGI [24] | TGI [27] | TGI [28] | TGI [29] | TGI [30] | TGI [31] | TGI [32] | TGI [33] | TGI [34] | TGI [35] | TGI [36] | TGI [37] | TGI [38] | TGI [39] | TGI [41] | TGI [43] | TGI [45] | TGI [46] | TGI [47] | TGI [50] | TGI [51] | TGI [52] | TGI [54] | TGI [55] | TGI [57]
74.4 µM: TGI [26]
41.9 µM: TGI [21]

C=C1C(=O)O[C@H]2[C@H]1CC/C(COC(=O)NCc1c[nH]c3ccccc13)=C\CC[C@@]1(C)O[C@@H]21
10.7 µM: TGI [29]
28.6 µM: TGI [5]
6.3 µM: TGI [25]
4.19 µM: TGI [57]
26.6 µM: TGI [37]
11.8 µM: TGI [52]
4.11 µM: TGI [51]
22.8 µM: TGI [3]
4.57 µM: TGI [21]
25 µM: TGI [41]
23.7 µM: TGI [10]
15.9 µM: TGI [39]
4.39 µM: TGI [22]
5.55 µM: TGI [18]
24.7 µM: TGI [53]
9.13 µM: TGI [23]
12.6 µM: TGI [14]
10.4 µM: TGI [49]
3.58 µM: TGI [34]
2.58 µM: TGI [40]
3.93 µM: TGI [31]
4.22 µM: TGI [12]
inactive: GI50 [1] 2.22 µM | GI50 [2] 1.91 µM | GI50 [3] 10.6 µM | GI50 [4] 3.63 µM | GI50 [5] 12.5 µM | GI50 [6] 2.55 µM | GI50 [8] 2.2 µM | GI50 [9] 1.97 µM | GI50 [10] 11.2 µM | GI50 [11] 1.48 µM | GI50 [12] 1.54 µM | GI50 [13] 2.02 µM | GI50 [14] 1.82 µM | GI50 [15] 3.1 µM | GI50 [16] 9.86 µM | GI50 [17] 11.1 µM | GI50 [18] 2 µM | GI50 [19] 1.72 µM | GI50 [20] 8.14 µM | GI50 [21] 1.71 µM | GI50 [22] 1.5 µM | GI50 [23] 2.71 µM | GI50 [24] 11.1 µM | GI50 [25] 1.98 µM | GI50 [26] 11.1 µM | GI50 [27] 10.4 µM | GI50 [28] 10.3 µM | GI50 [29] 2.35 µM | GI50 [30] 2.23 µM | GI50 [31] 1.78 µM | GI50 [58] 1.96 µM | GI50 [32] 1.77 µM | GI50 [33] 1.7 µM | GI50 [34] 1.81 µM | GI50 [35] 1.91 µM | GI50 [36] 4.5 µM | GI50 [37] 13.7 µM | GI50 [38] 1.4 µM | GI50 [39] 4.25 µM | GI50 [40] 1.23 µM | GI50 [41] 12.1 µM | GI50 [42] 6.41 µM | GI50 [43] 13.8 µM | GI50 [44] 1.79 µM | GI50 [45] 1.24 µM | GI50 [46] 5.16 µM | GI50 [47] 6.4 µM | GI50 [48] 1.51 µM | GI50 [49] 2.82 µM | GI50 [50] 8.37 µM | GI50 [51] 1.57 µM | GI50 [52] 2.57 µM | GI50 [53] 12.1 µM | GI50 [54] 2.65 µM | GI50 [55] 1.53 µM | GI50 [56] 1.34 µM | GI50 [57] 1.67 µM
19 µM: TGI [42]
5.21 µM: TGI [13]
8.84 µM: TGI [30]
8.99 µM: TGI [54]
14.4 µM: TGI [4]
23.1 µM: TGI [17] | TGI [20] | TGI [47]
2.72 µM: TGI [45]
18.6 µM: TGI [36]
24.5 µM: TGI [26] | TGI [50]
6.14 µM: TGI [44]
11.6 µM: TGI [58]
5 µM: TGI [35]
8.35 µM: TGI [1]
4.98 µM: TGI [2]
8.27 µM: TGI [11]
18.9 µM: TGI [46]
3.3 µM: TGI [55]
4.31 µM: TGI [48]
43.9 µM: TGI [28]
30.7 µM: TGI [43]
4.28 µM: TGI [33]
21.7 µM: TGI [16]
9.69 µM: TGI [15]
2.87 µM: TGI [38]
23.2 µM: TGI [24]
7.86 µM: TGI [9]
22.6 µM: TGI [27]
2.68 µM: TGI [56]
6.99 µM: TGI [8]
3.95 µM: TGI [19]
5.65 µM: TGI [6]
5.47 µM: TGI [32]
